# Measured values taken from patent US4264765A, “Salts of erythromycin A esters” (priority 1980, dated 1981).
# Test system: Staph, Aureus (Smith)
# Assay: standard test using mice infected with Staph, Aureus (Smith), subcutaneous treatment
# Assay type: in vivo
# Settings: Staphylococcus aureus, sc, pH 7.4, read-out: CD 50, mice, subcutaneous, isotonic or pH 7.4 buffered aqueous solution; LD 50 column prints 100
# Description: The above compounds were tested per their antibacterial uses in a standard test, using mice infected with Staph, Aureus (Smith). […] The compounds of the above examples were administered subcutaneously as isotonic solutions or aqueous solutions buffered to a pH of 7.4.
row,SMILES,ED50 [mg/kg]
1,"CCOC(=O)CCC(=O)O[C@H]1[C@H](O[C@@H]2[C@@H](C)[C@H](O[C@H]3C[C@@](C)(OC)[C@@H](O)[C@H](C)O3)[C@@H](C)C(=O)O[C@H](CC)[C@@](C)(O)[C@H](O)[C@@H](C)C(=O)[C@H](C)C[C@@]2(C)O)O[C@H](C)C[C@@H]1[N+](C)(C)COC(=O)c1ccccc1 [Example 5, 2'-ethylsuccinyl-N-benzoyloxymethyl erythromycin A iodide]",52
2,"CCOC(=O)CCC(=O)O[C@H]1[C@H](O[C@@H]2[C@@H](C)[C@H](O[C@H]3C[C@@](C)(OC)[C@@H](O)[C@H](C)O3)[C@@H](C)C(=O)O[C@H](CC)[C@@](C)(O)[C@H](O)[C@@H](C)C(=O)[C@H](C)C[C@@]2(C)O)O[C@H](C)C[C@@H]1[N+](C)(C)COC(=O)CC [Example 7, 2'-ethylsuccinyl-N-propionyloxymethyl erythromycin A iodide]",24

# Same assay, conditions: Staphylococcus aureus, sc, pH 7.4, read-out: CD 50, mice, subcutaneous, isotonic or pH 7.4 buffered aqueous solution; inoculation (a): LD50 of 10-100
row,SMILES,ED50 [mg/kg]
1,"CCC(=O)O[C@H]1[C@H](O[C@@H]2[C@@H](C)[C@H](O[C@H]3C[C@@](C)(OC)[C@@H](O)[C@H](C)O3)[C@@H](C)C(=O)O[C@H](CC)[C@@](C)(O)[C@H](O)[C@@H](C)C(=O)[C@H](C)C[C@@]2(C)O)O[C@H](C)C[C@@H]1[N+](C)(C)COC(=O)C(C)(C)C [Example 1, 2'-propionyl-N-pivalyloxymethylerythromycin A iodide]",88
2,"CCOC(=O)CCC(=O)O[C@H]1[C@H](O[C@@H]2[C@@H](C)[C@H](O[C@H]3C[C@@](C)(OC)[C@@H](O)[C@H](C)O3)[C@@H](C)C(=O)O[C@H](CC)[C@@](C)(O)[C@H](O)[C@@H](C)C(=O)[C@H](C)C[C@@]2(C)O)O[C@H](C)C[C@@H]1[N+](C)(C)COC(=O)C(C)(C)C [Example 3, 2'-ethylsuccinyl-N-pivalyloxymethyl erythromycin A chloride]",58
3,"CC[C@H]1OC(=O)[C@H](C)[C@@H](O[C@H]2C[C@@](C)(OC)[C@@H](O)[C@H](C)O2)[C@H](C)[C@@H](O[C@@H]2O[C@H](C)C[C@H]([N+](C)(C)COC(=O)C(C)(C)C)[C@H]2OC(=O)CCC(=O)O)[C@](C)(O)C[C@@H](C)C(=O)[C@H](C)[C@@H](O)[C@]1(C)O [Example 10, 2'-succinyl-N-pivalyloxymethyl erythromycin A chloride]",37
4,"CCOC(=O)CCC(=O)O[C@H]1[C@H](O[C@@H]2[C@@H](C)[C@H](O[C@H]3C[C@@](C)(OC)[C@@H](O)[C@H](C)O3)[C@@H](C)C(=O)O[C@H](CC)[C@@](C)(O)[C@H](O)[C@@H](C)C(=O)[C@H](C)C[C@@]2(C)O)O[C@H](C)C[C@@H]1[N+](C)(C)COC(=O)CCCCCC(=O)O [Example 14, 2'-ethylsuccinyl-N-pimelyloxymethyl erythromycin chloride]",47

# Same assay, conditions: Staphylococcus aureus, sc, pH 7.4, read-out: CD 50, mice, subcutaneous, isotonic or pH 7.4 buffered aqueous solution; inoculation (b): LD50 of 100-1000
row,SMILES,ED50 [mg/kg]
1,"CCOC(=O)CCC(=O)O[C@H]1[C@H](O[C@@H]2[C@@H](C)[C@H](O[C@H]3C[C@@](C)(OC)[C@@H](O)[C@H](C)O3)[C@@H](C)C(=O)O[C@H](CC)[C@@](C)(O)[C@H](O)[C@@H](C)C(=O)[C@H](C)C[C@@]2(C)O)O[C@H](C)C[C@@H]1[N+](C)(C)COC(=O)C(C)(C)C [Example 2, 2'-ethylsuccinyl-N-pivalyloxymethylerythromycin A iodide]",143
2,"CCC(=O)O[C@H]1[C@H](O[C@@H]2[C@@H](C)[C@H](O[C@H]3C[C@@](C)(OC)[C@@H](O)[C@H](C)O3)[C@@H](C)C(=O)O[C@H](CC)[C@@](C)(O)[C@H](O)[C@@H](C)C(=O)[C@H](C)C[C@@]2(C)O)O[C@H](C)C[C@@H]1[N+](C)(C)COC(=O)c1ccccc1 [Example 4, 2'-propionyl-N-benzoyloxymethyl erythromycin A chloride]",40
3,"CC[C@H]1OC(=O)[C@H](C)[C@@H](O[C@H]2C[C@@](C)(OC)[C@@H](O)[C@H](C)O2)[C@H](C)[C@@H](O[C@@H]2O[C@H](C)C[C@H]([N+](C)(C)COC(=O)C(C)(C)C)[C@H]2OC(=O)CCCC(=O)O)[C@](C)(O)C[C@@H](C)C(=O)[C@H](C)[C@@H](O)[C@]1(C)O [Example 12, 2'-glutaryl-N-pivalyloxymethyl erythromycin A chloride]",73
